Columns and labels:
[1] = test system: PTPbr7 mRNA in PC12 cells; settings: PC12 cells following treatment with NGF; Sharma and Lombroso 1995; cited from earlier work
PC12 cells = test: NGF-induced neurite outgrowth in PC12 cell lines transfected with full length mouse PTPbr7; type: cell-based, rat; settings: 50 ng/mL NGF for 6 days
Excerpt: Total mouse brain RNA (Strategene) was subjected to RT-PCR cloning using […] as the 5′ primer, and […] as the 3′ primer (CPMB, see, in particular, Chapter 15, The Polymerase Chain Reaction, Supplement 30). The cDNA clone (full length mouse PTPbr7) was introduced into PC12 cells by transfection using Lipofectamine™ Reagent (Life Technologies) and substantially following the instructional sheet (for adherent cells, see also, CPMB, in particular, Chapter 9, Introduction of DNA into Mammalian Cells, Supplement 39) which specifies the concentration of DNA and reagent, cell density, transfection times, and transfection protocol. Stable cell lines were selected in (200 μg/mL) G418 (Life Technologies), as also provided by the instructional sheet, and the overexpressing cell lines were identified by Northern Blot analysis (see CPMB, in particular, Chapter 4, Preparation and Analysis of RNA, Chapter 4.9.1, Analysis of RNA by Northern Blot Hybridization, Supplement 26). The transfected cell lines were then treated with 50 ng/mL NGF (Life Technologies) for 6 days. The degree of neurite outgrowth was quantitated using photomicrographs where the total number of cells in the field was counted, then the cells were recounted that had one or more neurites that were greater than or equal to one cell body diameter in length, and a “% neurites” was determined.

GST-PTPbr7 [2] = target: T1, GST-PTPbr7 (Mus musculus, UniProt Q62132); test: PTPbr7 inhibition assay: fluorogenic substrate (O-methyl fluorophosphate); type: biochemical; settings: sodium orthovanadate 1 mM; O-methyl fluorophosphate 10 μM; GST-PTPbr7 4 μg/mL; 30 min, room temperature; in absence of inhibitor 4100.00
T1 construct: purchased PanVera
T1 sequence (Q62132 24-656): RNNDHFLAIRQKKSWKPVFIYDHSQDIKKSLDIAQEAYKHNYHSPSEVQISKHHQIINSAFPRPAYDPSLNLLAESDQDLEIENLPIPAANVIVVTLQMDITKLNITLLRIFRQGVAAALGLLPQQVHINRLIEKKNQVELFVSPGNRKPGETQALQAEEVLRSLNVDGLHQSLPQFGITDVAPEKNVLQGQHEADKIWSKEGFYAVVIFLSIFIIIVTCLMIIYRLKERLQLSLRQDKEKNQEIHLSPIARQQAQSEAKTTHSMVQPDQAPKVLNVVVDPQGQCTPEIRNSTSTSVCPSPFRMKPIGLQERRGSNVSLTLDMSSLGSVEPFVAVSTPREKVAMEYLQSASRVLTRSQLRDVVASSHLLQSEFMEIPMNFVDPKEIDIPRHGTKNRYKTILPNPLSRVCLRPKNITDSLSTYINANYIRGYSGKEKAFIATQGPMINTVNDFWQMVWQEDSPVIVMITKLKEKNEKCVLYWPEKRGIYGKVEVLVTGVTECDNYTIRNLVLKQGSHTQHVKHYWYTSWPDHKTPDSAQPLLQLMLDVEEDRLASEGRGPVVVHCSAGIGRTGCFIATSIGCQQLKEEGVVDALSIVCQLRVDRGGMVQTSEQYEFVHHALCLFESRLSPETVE
Protocol: The ability of a test agent (positive control, non-specific tyrosine phosphatase inhibitor, sodium orthovanadate) to inhibit the dephosphorylation of a fluorogenic substrate by a PTPbr7 fusion protein was determined as follows.
80 μL of the diluted substrate (final concentration of 10 μM) was then added to each of two wells of a 96-well microtiter plate (COSTAR #3690 plate), followed by, in one of the wells, sodium orthovanadate (1 mM, final concentration), and in both wells, 20 μL of GST-PTPbr7 (4 μg, PanVera) to give a final enzyme concentration in each of the assays of 4 μg/mL. The reactions were incubated at room temperature for 30 min. For each reaction, the fluorescent emission was measured by excitation at 485 nm and emission at 535 nm using a Victor II plate reader (Packard). The presence of the test agent (sodium orthovanadate) in the reaction caused a decrease in the fluorescent signal (1250.00) compared to the reaction in the absence of inhibitor (4100.00).

GST-PTPbr7 [3] = target: T1, GST-PTPbr7; test: PTPbr7 inhibition assay: peptide substrate (malachite green readout); type: biochemical; settings: sodium orthovanadate 1 mM; peptide ENDpYINASL 0.1 mM; GST-PTPbr7 4 μg; 30 min, 25° C., pH 7.4; in absence of inhibitor 0.65
Protocol: The ability of a test agent (positive control, non-specific tyrosine phosphatase inhibitor, sodium orthovanadate) to inhibit the dephosphorylation of a peptide having a phosphotyrosine residue by a PTPbr7 fusion protein was determined as follows.GST-PTPbr7 (4 μg, PanVera) is mixed together with the peptide [ENDpYINASL] (0.1 mM, American Peptide Company), with and without sodium orthovanadate (1 mM, SIGMA®-Aldrich), in a total volume of 25 μL assay buffer (50 mM Tris, 0.15 M NaCl, 5 mM DTT, 0.1% BSA), pH 7.4, at 25° C., in separate wells of a ½ volume 96-well microtiter plate (COSTAR #3690 plate), for 30 min.
The reactions were then terminated by the addition of 100 μL of MG/AM stop solution. MG (Malachite Green) solution was obtained from SIGMA®-Aldrich cat no. M9636, and can be prepared by dissolving 500 mg/L in dH2O, filtering the solution with a Whatman #1 filter, and storing at 4° C. AM (Ammonium Molybdate) solution was obtained from SIGMA®Aldrich cat. no. A7302, 42 g/L in 4 M HCl (345 mL concentration HCl/L, stored at 4° C.). MG/AM mixture was prepared by mixing one part AM to 3 parts MG, stirring for at least 30 min, at room temperature, filtering with a Whatman #5, and storing at 4° C. […]
The plate is then incubated at room temperature for 15 min and, after removing any bubbles, the optical density of the solution in each well was read at A620 (620 nm, spectrophotometer). […]

Compound: NGF: Nerve growth factor, a neurotrophic factor which mediates the survival, differentiation and maintenance of specific populations of neurons
- upregulation of PTPbr7 mRNA [1]: 8 fold
- % Neurite on Day 6 (+NGF) (PC12 cells; cell line br7-9, PTPbr7 expression none): 52%
- % Neurite on Day 6 (+NGF) (PC12 cells; cell line br7-11, PTPbr7 expression high): 26%
- % Neurite on Day 6 (+NGF) (PC12 cells; cell line br7-12, PTPbr7 expression high): 24%
- % Neurite on Day 6 (+NGF) (PC12 cells; cell line br7-13, PTPbr7 expression high): 32%

Compound: [Na+].[Na+].[Na+].[O]=[V]([O-])([O-])[O-] [sodium orthovanadate]
- fluorescent signal (excitation 485 nm, emission 535 nm) (GST-PTPbr7 [2]): 1250.00
- optical density 620 nm (GST-PTPbr7 [3]): 0.10
